According to PubChem BioAssay (NCI):
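96-well plates; 48 h exposure; 5 concentrations. Endpoints by linear interpolation between flanking doses. Not reached: highest tested concentration assigned. GI50 marks 50% less growth. At the TGI there is no net growth.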

Assays:
Assay in all cases: NCI tumour cell line growth inhibition, 48 h
BT-549 breast = system: BT-549 breast
CCRF-CEM leukemia = system: CCRF-CEM leukemia
MDA-MB-435 = system: MDA-MB-435
NCI-H226 lung = system: NCI-H226 lung
NCI-H23 lung = system: NCI-H23 lung
OVCAR-3 ovarian = system: OVCAR-3 ovarian
OVCAR-8 ovarian = system: OVCAR-8 ovarian
RPMI-8226 leukemia = system: RPMI-8226 leukemia
SF-539 CNS = system: SF-539 CNS
UACC-257 melanoma = system: UACC-257 melanoma

SMILES	GI50 (BT-549 breast)	TGI (BT-549 breast)	GI50 (CCRF-CEM leukemia)	TGI (CCRF-CEM leukemia)	GI50 (MDA-MB-435)	TGI (MDA-MB-435)	GI50 (NCI-H226 lung)	TGI (NCI-H226 lung)	GI50 (NCI-H23 lung)	TGI (NCI-H23 lung)	GI50 (OVCAR-3 ovarian)	TGI (OVCAR-3 ovarian)	GI50 (OVCAR-8 ovarian)	TGI (OVCAR-8 ovarian)	GI50 (RPMI-8226 leukemia)	TGI (RPMI-8226 leukemia)	GI50 (SF-539 CNS)	TGI (SF-539 CNS)	GI50 (UACC-257 melanoma)	TGI (UACC-257 melanoma)
O=C(N/N=C/c1ccc(Cl)cc1)c1ccc(NC(=O)c2ccccn2)cc1	25 µM	99.6 µM	> 100 µM	> 100 µM	23.8 µM	> 100 µM	24.5 µM	> 100 µM	26.3 µM	> 100 µM	14 µM	33.6 µM	35.7 µM	> 100 µM	> 100 µM	> 100 µM	15.8 µM	40.3 µM	> 100 µM	> 100 µM
CC(=O)OCC1C(=O)OCC1C(=O)N1Cc2cc3ccccc3nc2C1 (stereo not drawn)		6.71 µM		3.79 µM		11.9 µM		18.8 µM		14.5 µM		6.14 µM		11.5 µM		4.6 µM		17.8 µM		8.64 µM
O=C1NN2CC(c3ccccc3)=NN=C2c2ccccc21	24.5 µM	57 µM	22.9 µM	55.7 µM	36.7 µM	> 100 µM	22.8 µM	57.8 µM	17.7 µM	38.7 µM	20.1 µM	48.2 µM	29.1 µM	74 µM	19.4 µM	41.7 µM	25.8 µM	56.8 µM	59.1 µM	> 100 µM
C[N+]1([O-])C2CCC1CC(OC(=O)C(CO)c1ccccc1)C2 (stereo not drawn)		> 100 µM		> 100 µM		> 100 µM		> 100 µM		> 100 µM		> 100 µM		> 100 µM		> 100 µM		> 100 µM		> 100 µM
N#CC1=C(N)Oc2c(sc3c(Br)cccc23)C1c1ccc([N+](=O)[O-])cc1 (stereo not drawn)	0.319 µM	5.31 µM	0.121 µM	9.89 µM	0.0206 µM	0.0807 µM	0.368 µM	15.6 µM	0.131 µM	13.2 µM	0.0403 µM	0.849 µM	0.227 µM	12.2 µM	0.116 µM	6.49 µM	0.0619 µM	0.475 µM	11.4 µM	27.5 µM
COC(=O)c1c2c(c(C)[n+]([O-])c1C)C(=O)C(NCc1ccc(OC)cc1)=CC2=O	2.96 µM	13.3 µM	2.86 µM	12.8 µM	1.73 µM	3.15 µM	3.45 µM	13.5 µM	1.81 µM	4.26 µM	0.315 µM	1.2 µM	2.78 µM	> 100 µM	2.41 µM	7.78 µM	1.68 µM	3.39 µM	1.63 µM	3.42 µM
CC1(C)N=C(N)N=C(N)N1c1ccc(OCCCNC(=O)Nc2ccc(S(=O)(=O)F)cc2)c(Cl)c1	11.5 µM	> 100 µM	0.208 µM	> 100 µM	0.143 µM	> 100 µM	11.2 µM	> 100 µM	0.488 µM	> 100 µM	1.55 µM	> 100 µM	0.697 µM	> 100 µM	1.64 µM	> 75 µM	1.3 µM	> 67.4 µM	5.11 µM	> 100 µM
CC(C)(C)CC(C)(C)c1ccc(OCCO)cc1	2.49 µg/mL	11.9 µg/mL	6.02 µg/mL	40.1 µg/mL	6.26 µg/mL	18.6 µg/mL	2.44 µg/mL	15.8 µg/mL	1.33 µg/mL	20.9 µg/mL	2.63 µg/mL	13.4 µg/mL	3.31 µg/mL	> 75 µg/mL	1.9 µg/mL	19.5 µg/mL	8.77 µg/mL	19.5 µg/mL	2.39 µg/mL	16.9 µg/mL
CCOC(=O)c1noc2c1CCc1c-2cn(Cc2ccc(OC)cc2)c1-c1cc(OC)c(OC)c(OC)c1	1.47 µM	35.1 µM	1.04 µM	> 100 µM	0.574 µM	> 100 µM	> 100 µM	> 100 µM	3.04 µM	> 100 µM	0.37 µM	10.6 µM	3.04 µM	> 100 µM	2.85 µM	> 100 µM	1.84 µM	6.56 µM	85.8 µM	> 100 µM
COc1cccc2c1nc(C(F)F)n2-c1nc(-c2ccc(NS(=O)(=O)CCN(C)C)cc2)nc(N2CCOCC2)n1	0.314 µM	16 µM	0.257 µM	20.5 µM	0.132 µM	7.2 µM	0.191 µM	6.43 µM	0.206 µM	23.3 µM	0.105 µM	3.13 µM	0.295 µM	> 41.1 µM	0.272 µM	2.41 µM	0.197 µM	2.63 µM	0.116 µM	1.72 µM
O=c1[nH]c2ccccc2n1C1CCNCC1	> 100 µM	> 100 µM	> 100 µM	> 100 µM	> 100 µM	> 100 µM	> 100 µM	> 100 µM	> 100 µM	> 100 µM	> 100 µM	> 100 µM	> 100 µM	> 100 µM	> 100 µM	> 100 µM	> 100 µM	> 100 µM	> 100 µM	> 100 µM
COc1cc2c(c3oc(-c4ccc(O)cc4)c(O)c(=O)c13)CCC(C)(C)O2	0.279 µM	0.836 µM	0.359 µM	> 100 µM	0.0427 µM	0.204 µM	0.536 µM	2.55 µM	0.0836 µM	0.221 µM	0.431 µM	27.4 µM	0.292 µM	0.856 µM	0.305 µM	0.787 µM	0.0241 µM	0.0586 µM	0.291 µM	0.778 µM
CC(C)=CC[C@@H]1CC2(CC=C(C)C)C(=O)C(OC3(C(=O)c4ccccc4)C(=O)C4(CC=C(C)C)C[C@@H](CC=C(C)C)C(C)(C)C(CC=C(C)C)(C4=O)C3=O)(C(=O)c3ccccc3)C(=O)C(CC=C(C)C)(C2=O)C1(C)C (stereo partly drawn)	0.884 µM	1.89 µM	1.64 µM	5.52 µM	1.41 µM	4.46 µM	1.34 µM	3.9 µM	1.36 µM	4.48 µM	1.24 µM	3.25 µM	1.7 µM	6.05 µM	1.05 µM	2.7 µM	1.14 µM	2.65 µM	1.4 µM	3.77 µM
Cc1cc(I)cc(CNCCN(C)C)c1O	37.5 µM	> 100 µM	> 100 µM	> 100 µM	37.1 µM	> 100 µM	> 100 µM	> 100 µM	97.3 µM	> 100 µM	> 86 µM	> 100 µM	> 100 µM	> 100 µM	35.2 µM	> 100 µM	> 89.9 µM	> 100 µM	> 62.5 µM	> 100 µM
NS(=O)(=O)c1ccc(N(/C=C/C(=O)C(F)(F)F)CC(=O)c2ccc(F)cc2)cc1	19.3 µM	43.3 µM	15.6 µM	41.5 µM	26.5 µM	79.6 µM	22.6 µM	40.9 µM	20.4 µM	57.7 µM	19.7 µM	47.3 µM	42.3 µM	> 100 µM	19.5 µM	55.8 µM	20.9 µM	43 µM	22 µM	72.8 µM
CNC(=O)Oc1cc(C(C)C)ccc1Sc1ccc(C(C)C)cc1OC(=O)NC	3.44 µM	12 µM	3.41 µM	46.3 µM	2.29 µM	10 µM	10 µM	25.5 µM	6.5 µM	23.6 µM	4.39 µM	14.7 µM	5.42 µM	27.9 µM	1.83 µM	7.48 µM	4.07 µM	17.1 µM	5.81 µM	20.3 µM
Cn1cc(C2=C(c3ccsc3)C(=O)NC2=O)c2ccccc21	> 25 µM	> 25 µM	> 21.1 µM	> 25 µM	> 25 µM	> 25 µM	> 22.6 µM	> 25 µM	> 25 µM	> 25 µM	17.2 µM	> 25 µM	> 25 µM	> 25 µM	> 25 µM	> 25 µM	24.2 µM	> 25 µM	> 25 µM	> 25 µM
COc1cc(/C=C/C(=O)c2cccc(-n3cc(-c4ccccc4)[nH]c3=O)c2)cc(OC)c1OC	1.93 µM	5.47 µM	0.64 µM	> 100 µM	1.2 µM	5.35 µM	14.6 µM	97.4 µM	1.43 µM	3.29 µM	1.23 µM	3.14 µM	1.62 µM	16.4 µM	0.626 µM	> 100 µM	1.68 µM	3.12 µM	1.52 µM	3.17 µM
COc1ccc(C2=NN(C(N)=S)C(c3ccc4c(c3)OCO4)C2)cc1 (stereo not drawn)	2.89 µM	20.5 µM	2.5 µM	8.18 µM	2.39 µM	7.26 µM	2.49 µM	6.84 µM	3.71 µM	23.3 µM	2.07 µM	4.72 µM	3.29 µM	22.9 µM	1.88 µM	6.33 µM	2.12 µM	5.21 µM	3.96 µM	68.5 µM
CCC(=C(c1ccc(OCCN2CCCCC2)cc1)c1ccc(OCCN2CCCCC2)cc1)c1ccc(Cl)cc1	> 16.7 µM	> 16.7 µM	1.92 µM	> 16.7 µM	2.61 µM	5.39 µM	> 16.7 µM	> 16.7 µM	> 16.7 µM	> 16.7 µM	11.2 µM	> 16.7 µM	> 16.7 µM	> 16.7 µM	3.6 µM	> 16.7 µM	2.55 µM	5.02 µM	3.47 µM	8.08 µM
N#CCCNc1nonc1-c1nc2ccccc2n1CC(=O)c1ccc(N)cc1	0.0289 µM	22.9 µM	0.029 µM	> 100 µM	< 0.01 µM	< 0.0166 µM	0.098 µM	> 100 µM	0.0312 µM	> 100 µM	0.0207 µM	0.0549 µM	0.0354 µM	> 100 µM	0.0309 µM		0.0252 µM	1.19 µM		> 100 µM
CC(C)=CCc1cc2c(cc1O)C1=C(C(=O)C3=C(NCCS3(=O)=O)C1=O)C(C=C(C)C)O2 (stereo not drawn)	14.1 µM	> 16.7 µM	4.53 µM	> 16.7 µM	2.89 µM	5.6 µM	14.4 µM	> 16.7 µM	5.8 µM	> 16.7 µM	2.13 µM	10.1 µM	4.75 µM	> 16.7 µM	5.56 µM	> 16.7 µM	4.22 µM	12.9 µM	3.48 µM	9.66 µM
